Test results reported in patent US20250065017A1, “Fractionating Extracellular Matrix to Modulate Bioactivity and the Host Response” (University of Pittsburgh - Of the Commonwealth System of …, priority 2014, published 2025).

Tests used:
THP1 macrophages = test: PGE2 and PGF2α secretion (ELISA); type: cell-based, human; conditions: coadministered along with UBM hydrogel
Description: (§1) THP-1 human monocytes were obtained from the American Tissue Culture Collection (ATCC, Manassas, VA) and maintained in RPMI, 10% FBS, 1% penicillin/streptomycin, 2 mM L-glutamine, and 1 mM sodium pyruvate in a humidified atmosphere at 37° C. with 5% CO2. For TNFα, PGE2, PGF2α, IL-1β, and IL-1RA experiments, 500,000 THP-1 cells/well were plated with 320 nM phorbol 12-myristate 13-acetate (PMA) for 24 hours to induce differentiation into macrophages. Adherent macrophages were washed in PBS and placed in fresh media, followed by a 24 hour incubation in fresh media to acquiesce. Human PSCs were isolated from blood vessels in fetal muscle according to the methods outlined by Crisan et al. [Purification and long-term culture of multipotent progenitor cells affiliated with the walls of human blood vessels: myoendothelial cells and pericytes. […]
(§2) Macrophages prepared as described in the Cell Culture section were treated with UBM digest (290 μg/mL) or fractionated components (80 μg/mL soluble, 170 μg/mL structural) for 48 (TNFα, IL-1β and IL-1RA), or 72 (PGE2 and PGF2α) hours. […] Commercially available ELISA kits were used to determine the absolute quantities of TNFα (BD Bioscience, San Jose, CA), PGE2 (Enzo, Farmingdale, NY), PGF2α (Enzo, Farmingdale, NY), IL-1β (BD Bioscience, San Jose, CA), and IL1-RA (R&D Systems, Minneapolis, MN) according to the manufacturer's instructions. […]

THP-1 macrophages = test: TNFα and IL-1β secretion after treatment (ELISA); type: cell-based, human; conditions: 48 hours treatment
Description: as §1, §2

Compound	PGE2 secretion on co-incubation with COX2 inhibitor (THP1 macrophages)	production of TNFα and IL-1β above control (THP-1 macrophages)
CS(=O)(=O)Nc1ccc([N+](=O)[O-])cc1OC1CCCCC1 [NS-398]	abrogated PGE2 secretion down to control levels	
lipopolysaccharide [LPS]		100-1000 fold
